Results published in PubChem BioAssay AID2060488 (Molecular Pharmacology Branch, DTP, NCI, 2025).
Where “and” joins values, the source holds several entries; their conditions need not be identical. Equal values may be shown once.

Test system: 966289-007-R4-J1-PDC complex spheroid viability
Assay: Anticancer human tumor 966289-007-R4-J1-PDC patient-derived pancreatic adenocarcinoma cell line growth inhibition [GQUAD]
Conditions: for viability, T/C: stronger effect = lower value
Source text: DNA G-quadruplex Stabilizer Agents in Combinations in Complex Spheroids
A high-throughput screen of multi-cell type tumor spheroids was designed to identify active combinations of DNA G-quadruplex stabilizer agents and targeted small molecules. Complex spheroids include a stromal component modeled by human endothelial cells (HUVEC) and fibroblasts modeled by human mesenchymal stem cells (MSCs). The concentration ranges selected for each drug and investigational agent were based upon clinically achievable concentrations if the clinical Cmax of the agent was known.
Compounds. The drugs and investigational agents: pidnarulex (CX-5461; NSC782164), APTO-253 (NSC789042), BRACO-19 (NSC847499), peposertib (NSC802822), ceralasertib (NSC780249), elimusertib (NSC800525), camonsertib (NSC841442), AZD-1390 (NSC803789), olaparib (NSC753686), talazoparib (NSC767125), ART-558 (NSC835418), sotorasib (NSC818433), MRTX-1133 (NSC836407), SN-38 (NSC673596), topotecan (NSC609699), etoposide (NSC141540), doxorubicin (NSC123127), gemcitabine (NSC613327), 5-fluorouracil (NSC19893), paclitaxel (NSC125973), vemurafenib (NSC761431), panobinostat (NSC761190), R-306465 (JNJ-16241199; NSC773264), adavosertib (NSC754352), TP-3654 (NSC805149), carboplatin (NSC241240), KSQ-4279 (NSC840948), and staurosporine (NSC755774) were obtained from the National Cancer Institute (NCI) Developmental Therapeutics Program Chemical Repository (34). The FDA-approved anticancer drug set is available from the NCI Developmental Therapeutics Program. […] The stock solutions were prepared in dimethyl sulfoxide (DMSO, Sigma-Aldrich, St. Louis, MO, cat. D2650) at 800-fold the tested concentration and stored at -70 degrees C prior to their use. All drugs and investigational agents were tested over a range starting from a high concentration at or near the clinical Cmax and decreasing in half-log increments. If the clinical Cmax for an agent had not been determined, the highest concentration tested was 10 microM.
2.3 Cell Culture. All cells were maintained in an incubator at 37 degrees C and 5% CO2 with 95% humidity. The PDC lines were cultured according to standard operating procedures established by the NCI PDMR. All PDCs were thawed and cultured in Matrigel-coated flasks prepared with a working solution of 1X Ham's F-12 nutrient mix, without supplementation (Invitrogen, cat. 11765054), 100 U/mL penicillin-streptomycin (Invitrogen, cat. 15140122), and 2.5% Matrigel (Corning Inc., cat. 354248) for the first three passages. The 857933-349-R-J2-PDC line was cultured in 6C/Colon 1B media, which includes advanced DMEM/F-12 (Thermo Fisher Scientific, cat. 12634028), 10 mM HEPES (Thermo Fisher Scientific, cat. 15630080), 1X GlutaMAX supplement (Thermo Fisher Scientific, cat. 35050061), 0.1 mg/mL primocin (InvivoGen, cat. ant-pm-2), 10% defined fetal bovine serum, heat inactivated (HyClone Laboratories Inc., cat. SH30070.03HI), 50% L-WRN conditioned media (ATCC, cat. CRL-3276), 1.25 mM N-Acetyl-L-cysteine (Sigma-Aldrich, cat. A9165), 10 mM nicotinamide (Sigma-Aldrich, cat. N0636), 1X B-27 supplement (Thermo Fisher Scientific, cat. 17504044), 1X N-2 supplement (Thermo Fisher Scientific, cat. 17502048), 10 microM Y-27632 dihydrochloride (Tocris Bioscience, cat. 1254), and 50 ng/mL human EGF recombinant protein (Thermo Fisher Scientific, cat. PHG0311). The 485176-168-R4-J1-PDC line was cultured in Panc media, which includes all 6C/Colon 1B media components plus 100 ng/mL human FGF-10 (Thermo Fisher Scientific, cat. 100-26), 500 nM SB-431542 (Selleckchem, cat. S1067), and gastrin (Tocris, cat. 3006).
[…]
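Further: spheroids exposed to the agents for seven days before readout.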
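Wherever viability, T/C is given: percent viability relative to DMSO vehicle control wells taken as 100%.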

Structure (SMILES)	viability, T/C (compound 0.0316 µM)	viability, T/C (compound 0.1 µM)	viability, T/C (compound 0.316 µM)	viability, T/C (compound 1 µM)	viability, T/C (compound 3.16 µM)	viability, T/C (compound 10 µM)	IC50 (curve of compound)	viability, T/C (compound 0.000999 µM)	viability, T/C (compound 0.00316 µM)	viability, T/C (compound 0.00999 µM)	viability, T/C (compound 0.0999 µM)	IC50 (compound alone, run of 03/26/2024)
C#Cc1c(F)ccc2cc(O)cc(-c3ncc4c(N5CC6CCC(C5)N6)nc(OCC56CCCN5CC(F)C6)nc4c3F)c12 (stereo unspecified)	97.1% and 95.7%	112% and 91.4%	104% and 100%	102% and 97.3%	108% and 98.6%	113% and 95.9%	> 10 µM	–	–	–	–	–
C=CC(=O)N1CCN(c2nc(=O)n(-c3c(C)ccnc3C(C)C)c3nc(-c4c(O)cccc4F)c(F)cc23)C(C)C1 (stereo unspecified)	102% (2×) and 99.4%	102% and 99.7% and 98.1%	104% and 94.3% and 95.7%	90% and 101% and 75.8%	97.5% and 106% and 100%	110% and 108% and 116%	> 10 µM	–	–	–	–	–
C=CCn1c(=O)c2cnc(Nc3ccc(N4CCN(C)CC4)cc3)nc2n1-c1cccc(C(C)(C)O)n1	102% and 99.9% and 97.9%	105% and 97.2% and 108%	110% and 113% and 120%	101% and 105% and 81.8%	4.65% and 8.05% and 2.6%	1.72% and 1.84% and 1.48%	1.84 µM and 1.91 µM and 1.58 µM	–	–	–	–	–
CC(=O)O[C@H]1C(=O)[C@@]2(C)[C@H]([C@H](OC(=O)c3ccccc3)[C@]3(O)C[C@H](OC(=O)[C@H](O)[C@@H](NC(=O)c4ccccc4)c4ccccc4)C(C)=C1C3(C)C)[C@]1(OC(C)=O)CO[C@@H]1C[C@@H]2O	5.97% and 4.08%	3.17% and 2.51%	4.33% and 3.04%	6.75% and 5.13%	9.64% and 6.14%	14.1% and 8.4%	< 0.0316 µM	–	–	–	–	–
CC(C)(O)C1CCC(Nc2ccc3ncc(-c4cccc(C(F)(F)F)c4)n3n2)CC1 (stereo unspecified)	105% and 92.3% and 96.8%	100% and 95.3% and 106%	98.5% and 95.1% and 91.2%	93.8% and 90.5% and 107%	42.9% and 43.5% and 36.2%	75.9% and 49.8% and 33.1%	> 10 µM and 2.89 µM and 2.47 µM	–	–	–	–	–
CC(C)n1c(=O)n(C)c2cnc3cc(F)c(-c4ccc(OCCCN5CCCCC5)nc4)cc3c21	101% and 103% and 95.4%	103% and 106% (2×)	114% and 106% and 102%	107% and 105% and 114%	107% (2×) and 116%	86% and 88.6% and 91.8%	> 10 µM	–	–	–	–	–
CC1COCCN1c1cc(-c2ccnn2C)c2ccnc(-c3ccn[nH]3)c2n1 (stereo unspecified)	112% and 106% and 104%	75.1% and 95% and 82.1%	15.9% and 32.8% and 16.8%	6.65% and 12.3% and 6.94%	4.32% and 6.18% and 4.41%	3.06% and 4.67% and 3.7%	0.163 µM and 0.231 µM and 0.176 µM	–	–	–	–	–
CC1COCCN1c1cc(C2(O)CC3CCC(C2)O3)c2cnn(-c3ccn[nH]3)c2n1 (stereo unspecified)	112% and 111% and 109%	64.2% and 55% and 74.8%	16.3% and 13.5% and 20.4%	5.75% and 6.02% and 11.2%	4.81% and 4.92% and 6.7%	4.35% and 4.17% and 5.99%	0.141 µM and 0.115 µM and 0.17 µM	–	–	–	–	–
CC1COCCN1c1cc(C2(S(C)(=N)=O)CC2)nc(-c2ccnc3[nH]ccc23)n1 (stereo unspecified)	105% and 101% and 96.9%	104% and 98.3% and 105%	109% and 99.3% and 108%	95.2% and 103% and 108%	45.6% and 71.7% and 117%	6.26% and 10.7% and 7.26%	2.85 µM and 4.77 µM and 6.11 µM	–	–	–	–	–
CCCS(=O)(=O)Nc1ccc(F)c(C(=O)c2c[nH]c3ncc(-c4ccc(Cl)cc4)cc23)c1F	109% and 105% and 99.4%	102% and 96% and 99.5%	111% (2×) and 97.8%	110% and 106% and 114%	114% (2×) and 108%	37.5% and 36.5% and 38%	8.17 µM and 7.89 µM and 8.2 µM	–	–	–	–	–
CC[C@@]1(O)C(=O)OCc2c1cc1n(c2=O)Cc2cc3c(CN(C)C)c(O)ccc3nc2-1	74.9% and 90.5% and 50.4%	–	0.62% and 0.47% and 0.41%	–	–	–	0.0465 µM and 0.0535 µM and 0.0319 µM	88.3% and 105% and 97.2%	92.3% and 95.7% and 100%	108% and 105% and 110%	0.78% and 1.86% and 0.73%	–
CCc1c2c(nc3ccc(O)cc13)-c1cc3c(c(=O)n1C2)COC(=O)[C@]3(O)CC	0.8% and 0.6% and 0.43%	–	0.45% and 0.44% and 0.36%	–	–	–	< 0.000999 µM	21.8% and 23.1% and 26.9%	0.79% and 0.89% and 0.66%	0.67% and 0.66% and 0.5%	0.53% and 0.49% and 0.38%	–
CN(C)c1ccc(Nc2c3ccc(NC(=O)CCN4CCCC4)cc3nc3cc(NC(=O)CCN4CCCC4)ccc23)cc1	104% [middle of 12 runs]	107% [middle of 12 runs]	108% [middle of 11 runs]	108% [middle of 12 runs]	98.7% [middle of 12 runs]	99.8% [middle of 12 runs]	–	–	–	–	–	> 10 µM
